Data taken from patent publication US7172865B2, “Rapid and sensitive assay for the detection and quantification of coregulators of nucleic acid binding factors” (Saint Louis University, priority 2001, dated 2007).

How the values were obtained:
LacR protein = LacR protein (Escherichia coli, UniProt P03023); assay: IPTG biosensor; type: binding; settings: 50 nM and 60 nM components, 2 hrs
Description: FIG. 24 describes a biosensor for detecting IPTG. Increasing concentrations of IPTG were added to a mixture containing 50 nM fluorescein-labeled LacR-specific first nucleic acid component and 60 nM dabcyl-labeled Lac-specific second nucleic acid component.
FIG. 24 illustrates a biosensor design using a nucleic acid binding factor for which the coregulator reduced its affinity for a specific nucleic acid element. In this case, the coregulator will induce the dissociation of the protein-nucleic acid complex and its detection could be accomplished by coregulator-dependent disappearance of protein-nucleic acid complex. […] In the absence of IPTG (a coregulator for LacR) the LacR protein bound to its labeled cognate nucleic acid element resulting in quenching of the fluorescence signal.

[1] = tested on: LacR binding site split between LAC1/LAC4 and LAC2/LAC3; assay: detection of Lac repressor protein by fluorescence quenching
Excerpt: The LAC1 oligonucleotide (SEQ ID NO:12) was hybridized with the LAC4 oligonucleotide (SEQ ID NO:15) to generate the LAC1/LAC4 construct and the LAC2 oligonucleotide (SEQ ID NO:13) was hybridized with the LAC3 oligonucleotide (SEQ ID NO:14) to generate the LAC2/LAC3 construct.

CAP protein = CAP protein (Escherichia coli, UniProt P0ACJ8); settings: cited from earlier work
CAP protein, sequence (P0ACJ8 2-210): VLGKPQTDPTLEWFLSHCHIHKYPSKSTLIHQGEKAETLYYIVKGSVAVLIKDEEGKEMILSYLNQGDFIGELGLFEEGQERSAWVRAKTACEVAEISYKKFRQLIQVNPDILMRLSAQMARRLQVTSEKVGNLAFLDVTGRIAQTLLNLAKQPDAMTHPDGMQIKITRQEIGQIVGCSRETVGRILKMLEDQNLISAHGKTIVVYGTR

TrpR [2] = target: T1, TrpR (Escherichia coli, UniProt P0A881); assay: tryptophan biosensor, fluorescence polarization; type: binding; settings: 4 nM fluorescein-labeled 25 bp duplex
Description: Increasing concentrations of tryptophan were added to a mixture containing 4 nM fluorescein-labeled 25 bp DNA duplex containing consensus TrpR binding sites.
To illustrate that a different detection methodology for measuring the formation of nucleic acid-protein complexes could be accommodated to the biosensor design shown in FIG. 20, a biosensor for tryptophan was prepared wherein only one nucleic acid component was attached to a detectable label. According to this particular embodiment of the invention, fluorescence polarization of fluorochrome-labeled DNA component containing a TrpR cognate binding site was used to measure tryptophan-induced formation of a TrpR-nucleic acid complex (FIG. 23).

TrpR [3] = target: T1, TrpR; assay: tryptophan biosensor, fluorescence intensity; type: binding; settings: 250 nM and 300 nM components, 2 hrs
Description: Increasing concentrations of tryptophan were added to a mixture containing 250 nM fluorescein labeled TrpR-specific first nucleic acid component and 300 nM dabcyl-labeled Trp-specific second nucleic acid component.

[4] = tested on: TrpR binding site split between TRP1/TRP4 and TRP2/TRP3; settings: 250 nM TRP1/TRP4 and 300 nM TRP2/TRP3, 4 mM tryptophan
Description: The TRP1 oligonucleotide (SEQ ID NO:16) was hybridized with the TRP4 oligonucleotide (SEQ ID NO:19) to generate the TRP1/TRP4 construct and the TRP2 oligonucleotide (SEQ ID NO:17) was hybridized with the TRP3 oligonucleotide (SEQ ID NO:18) to generate the TRP2/TRP3 construct. For the hybridization, the appropriate oligonucleotides were mixed at 10 μM concentration in 100 μl of 50 mM Tris/HCl (pH 8.0), 100 mM NaCl, 1 mM EDTA, heated for 1 min at 95° C. and then cooled to 25° C. for 1 hr. All subsequent fluorescence measurements were performed at 15° C. in 10 mM potassium phosphate (pH 7.6), 50 mM NaCl, 0.1 mM EDTA, 4mM tryptophan, 10% glycerol, 0.01% sodium azide and 1.0 mg/ml BSA. […] The duplexes contain a TrpR binding site (underlined sequence) split between each of the two double stranded constructs.
The fluorescence spectra of 250 nM TRP1/TRP4 and 300 nM TRP2/TRP3 were recorded in the absence of TrpR (FIG. 16A, curve 1) and in the presence of varying amounts of TrpR in a range from 0–800 nM (FIG. 16A, curves 2–5). ).

CC(C)S[C@@H]1O[C@H](CO)[C@H](O)[C@H](O)[C@H]1O [IPTG, reference compound]
fluorescence signal response to IPTG (LacR protein): IPTG-dependent increase in fluorescence signal | effect on LacR nucleic acid binding activity ([1]; 5 mM IPTG): reduces its nucleic acid binding activity

Nc1nc2c(ncn2[C@@H]2O[C@@H]3COP(=O)(O)O[C@H]3[C@H]2O)c(=O)[nH]1 [cGMP]
affinity of CAP for the cyclic nucleotide (CAP protein; CAP alone): micromolar affinity | change of affinity of CAP for the nucleotide in the presence of DNA containing a CAP binding site (CAP protein): remains unchanged

N[C@@H](Cc1c[nH]c2ccccc12)C(=O)O [tryptophan]
fluorescence polarization response to tryptophan (TrpR [2]): change of fluorescence polarization signal proportional to tryptophan concentration | fluorescence signal response to tryptophan (TrpR [3]): large fluorescence signal change

B1: LacR: Lac repressor protein, nucleic acid binding reduced by IPTG (protein, UniProt P03023 1-360, looked up)
Lactose operon repressor: MKPVTLYDVAEYAGVSYQTVSRVVNQASHVSAKTREKVEAAMAELNYIPNRVAQQLAGKQSLLIGVATSSLALHAPSQIVAAIKSRADQLGASVVVSMVERSGVEACKAAVHNLLAQRVSGLIINYPLDDQDAIAVEAACTNVPALFLDVSDQTPINSIIFSHEDGTRLGVEHLVALGHQQIALLAGPLSSVSARLRLAGWHKYLTRNQIQPIAEREGDWSAMSGFQQTMQMLNEGIVPTAMLVANDQMALGAMRAITESGLRVGADISVVGYDDTEDSSCYIPPLTTIKQDFRLLGQTSVDRLLQLSQGQAVKGNQLLPVSLVKRKTTLAPNTQTASPRALADSLMQLARQVSRLESGQ
protein concentration at saturation of quenching [4]: approximately 150 nM | protein concentration at saturation of quenching ([1]; 50 nM LAC1/LAC4 plus LAC2/LAC3): approximately 150 nM
